Results from patent publication US20020051978A1, “Methods and compositions for the identification, assessment, prevention and therapy of human cancers” (priority 2000, published 2002).
Like-named read-outs stand apart in the source and are kept apart here.

Tests used:
[1] = system: 60 cancer cell lines (NCI 60 cancer cell line series); experiment: NCI-DTP in vitro cancer screen, sulforhodamine B (SRB) growth inhibition, 48 hour exposure; format: cell-based, human; parameters: key to sensitivity class Ovarian OVCAR-8 CL6005 / sensitivity class Ovarian SK-OV-3 CL6011 / sensitivity class Prostate DU-145 CL11003 / sensitivity class NSCLC NCI-H522 CL1003 / sensitivity class Ovarian IGROV1 CL6010 / sensitivity class Ovarian OVCAR-4 CL6002 / sensitivity class Prostate PC-3(I) CL11001 / sensitivity class Renal A498 CL9013 / sensitivity class Renal SN12C CL9008: sensitivity class: 1 = Low, 2 = Medium, 3 = High
Outline: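 Sixty NCI-DTP cancer lines plated at line-specific densities, dosed on day 1 in duplicate with 5 concentrations at ten-fold intervals. After 48 h exposure, cell mass read by SRB staining; GI50 (50% growth inhibition) taken from dose-response curves and expressed as -log GI50.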

[2] = system: 60 cancer cell lines (NCI 60 cancer cell line series); details: cited from earlier work

O=c1[nH]cc(F)c(=O)[nH]1 [5-Fluorouracil]
classification of cell line as Low(1), Medium(2) or High(3) sensitivity to compound ([1]; Breast BT-549 (CL5013)): 1
classification of cell line as Low(1), Medium(2) or High(3) sensitivity to compound ([1]; Breast HS-578T CL5006): 1
classification of cell line as Low(1), Medium(2) or High(3) sensitivity to compound ([1]; Breast MCF7(I) (CL5001)): 3
classification of cell line as Low(1), Medium(2) or High(3) sensitivity to compound ([1]; Breast MCF7/ADRr (CL5002)): 2
classification of cell line as Low(1), Medium(2) or High(3) sensitivity to compound ([1]; Breast MDA-MB-231 CL5005): 1
classification of cell line as Low(1), Medium(2) or High(3) sensitivity to compound ([1]; Breast MDA-MB-435 (CL5011)): 2
classification of cell line as Low(1), Medium(2) or High(3) sensitivity to compound ([1]; Breast MDA-N CL5012): 2
classification of cell line as Low(1), Medium(2) or High(3) sensitivity to compound ([1]; Breast T-47D (CL5014)): 2
classification of cell line as Low(1), Medium(2) or High(3) sensitivity to compound ([1]; CNS SF-268 CL12014): 2
classification of cell line as Low(1), Medium(2) or High(3) sensitivity to compound ([1]; CNS SF-295 CL12015): 2
classification of cell line as Low(1), Medium(2) or High(3) sensitivity to compound ([1]; CNS SF-539 CL12016): 3
classification of cell line as Low(1), Medium(2) or High(3) sensitivity to compound ([1]; CNS SNB-19 (CL12002)): 1
classification of cell line as Low(1), Medium(2) or High(3) sensitivity to compound ([1]; CNS SNB-75(I) CL12005): 1
classification of cell line as Low(1), Medium(2) or High(3) sensitivity to compound ([1]; CNS U251(I) CL12009): 2
classification of cell line as Low(1), Medium(2) or High(3) sensitivity to compound ([1]; Colon COLO-250 CL4010): 2
classification of cell line as Low(1), Medium(2) or High(3) sensitivity to compound ([1]; Colon HCC-2998 (CL4002)): 3
classification of cell line as Low(1), Medium(2) or High(3) sensitivity to compound ([1]; Colon HCT-15 CL4015): 2
classification of cell line as Low(1), Medium(2) or High(3) sensitivity to compound ([1]; Colon HCT-116 (CL4003)): 3
classification of cell line as Low(1), Medium(2) or High(3) sensitivity to compound ([1]; Colon HT29(I) CL4001): 2
classification of cell line as Low(1), Medium(2) or High(3) sensitivity to compound ([1]; Colon KM12 (CL4017)): 2
classification of cell line as Low(1), Medium(2) or High(3) sensitivity to compound ([1]; Colon SW-620 (CL4009)): 2
classification of cell line as Low(1), Medium(2) or High(3) sensitivity to compound ([1]; Leukemia CCRF-CEM(I) (CL7003)): 2
classification of cell line as Low(1), Medium(2) or High(3) sensitivity to compound ([1]; Leukemia HL-60(I) (CL7008)): 2
classification of cell line as Low(1), Medium(2) or High(3) sensitivity to compound ([1]; Leukemia K562(I) CL7005): 2
classification of cell line as Low(1), Medium(2) or High(3) sensitivity to compound ([1]; Leukemia MOLT-4 (CL7006)): 2
classification of cell line as Low(1), Medium(2) or High(3) sensitivity to compound ([1]; Leukemia RPMI-8226(I) (CL7010)): 3
classification of cell line as Low(1), Medium(2) or High(3) sensitivity to compound ([1]; Leukemia SR CL7019): 2
classification of cell line as Low(1), Medium(2) or High(3) sensitivity to compound ([1]; Melanoma LOX IMVI CL10001): 2
classification of cell line as Low(1), Medium(2) or High(3) sensitivity to compound ([1]; Melanoma M14 (CL10014)): 2
classification of cell line as Low(1), Medium(2) or High(3) sensitivity to compound ([1]; Melanoma MALME-3M CL10002): 2
sensitivity class NSCLC NCI-H23(I) CL1001 ([1]; cell line NSCLC NCI-H23(I), CL1001): 2
sensitivity class NSCLC NCI-H332M CL1017 ([1]; cell line NSCLC NCI-H332M, CL1017): 2
sensitivity class NSCLC NCI-H460 CL1021 ([1]; cell line NSCLC NCI-H460, CL1021): 3
sensitivity class NSCLC NCI-H522 CL1003 ([1]; cell line NSCLC NCI-H522, CL1003): 2
sensitivity class Ovarian IGROV1 CL6010 ([1]; cell line Ovarian IGROV1, CL6010): 2
sensitivity class Ovarian OVCAR-3 CL6001 ([1]; cell line Ovarian OVCAR-3, CL6001): 2
sensitivity class Ovarian OVCAR-4 CL6002 ([1]; cell line Ovarian OVCAR-4, CL6002): 2
sensitivity class Ovarian OVCAR-5 CL6003 ([1]; cell line Ovarian OVCAR-5, CL6003): 1
sensitivity class Ovarian OVCAR-8 CL6005 ([1]; cell line Ovarian OVCAR-8, CL6005): 2
sensitivity class Ovarian SK-OV-3 CL6011 ([1]; cell line Ovarian SK-OV-3, CL6011): 1
sensitivity class Prostate DU-145 CL11003 ([1]; cell line Prostate DU-145, CL11003): 2
sensitivity class Prostate PC-3(I) CL11001 ([1]; cell line Prostate PC-3(I), CL11001): 2
sensitivity class Renal 786-O CL9018 ([1]; cell line Renal 786-O, CL9018): 2
sensitivity class Renal A498 CL9013 ([1]; cell line Renal A498, CL9013): 2
sensitivity class Renal ACHN CL9023 ([1]; cell line Renal ACHN, CL9023): 2
sensitivity class Renal CAKI-1 CL9015 ([1]; cell line Renal CAKI-1, CL9015): 3
sensitivity class Renal RXF-393 CL9016 ([1]; cell line Renal RXF-393, CL9016): 2
sensitivity class Renal SN12C CL9008 ([1]; cell line Renal SN12C, CL9008): 2
sensitivity class Renal TK10 CL9024 ([1]; cell line Renal TK10, CL9024): 1
sensitivity class Renal UO-31 CL9004 ([1]; cell line Renal UO-31, CL9004): 2
-Log (GI50) ([2]; Breast BT-549 (CL5013)): 4.0
-Log (GI50) ([2]; Breast HS-578T CL5006): 3.7
-Log (GI50) ([2]; Breast MCF7(I) (CL5001)): 5.7
-Log (GI50) ([2]; Breast MCF7/ADRr (CL5002)): 4.4
-Log (GI50) ([2]; Breast MDA-MB-231 CL5005): 3.4
-Log (GI50) ([2]; Breast MDA-MB-435 (CL5011)): 4.9
-Log (GI50) ([2]; Breast MDA-N CL5012): 5.0
-Log (GI50) ([2]; Breast T-47D (CL5014)): 4.2
-Log (GI50) ([2]; CNS SF-268 CL12014): 4.3
-Log (GI50) ([2]; CNS SF-295 CL12015): 4.3
-Log (GI50) ([2]; CNS SF-539 CL12016): 6.1
-Log (GI50) ([2]; CNS SNB-19 (CL12002)): 3.9
-Log (GI50) ([2]; CNS SNB-75(I) CL12005): 3.8
-Log (GI50) ([2]; CNS U251(I) CL12009): 4.3
-Log (GI50) ([2]; Colon COLO-250 CL4010): 5.2
-Log (GI50) ([2]; Colon HCC-2998 (CL4002)): 5.9
-Log (GI50) ([2]; Colon HCT-15 CL4015): 5.2
-Log (GI50) ([2]; Colon HCT-116 (CL4003)): 5.4
-Log (GI50) ([2]; Colon HT29(I) CL4001): 5.2
-Log (GI50) ([2]; Colon KM12 (CL4017)): 4.9
-Log (GI50) ([2]; Colon SW-620 (CL4009)): 4.6
-Log (GI50) ([2]; Leukemia CCRF-CEM(I) (CL7003)): 4.5
-Log (GI50) ([2]; Leukemia HL-60(I) (CL7008)): 4.9
-Log (GI50) ([2]; Leukemia K562(I) CL7005): 4.8
-Log (GI50) ([2]; Leukemia MOLT-4 (CL7006)): 4.9
-Log (GI50) ([2]; Leukemia RPMI-8226(I) (CL7010)): 5.3
-Log (GI50) ([2]; Leukemia SR CL7019): 5.2
-Log (GI50) ([2]; Melanoma LOX IMVI CL10001): 5.2
-Log (GI50) ([2]; Melanoma M14 (CL10014)): 4.3
-Log (GI50) ([2]; Melanoma MALME-3M CL10002): 4.6
-Log (GI50) ([2]; NCSLC NCI-H522 CL1003): 4.4
-Log (GI50) ([2]; NSCLC NCI-H23(I) CL1001): 5.0
-Log (GI50) ([2]; NSCLC NCI-H332M CL1017): 4.4
-Log (GI50) ([2]; NSCLC NCI-H460 CL1021): 5.9
-Log (GI50) ([2]; Ovarian IGROV1 CL6010): 4.8
-Log (GI50) ([2]; Ovarian OVCAR-3 CL6001): 4.4
-Log (GI50) ([2]; Ovarian OVCAR-4 CL6002): 4.1
-Log (GI50) ([2]; Ovarian OVCAR-5 CL6003): 3.8
-Log (GI50) ([2]; Ovarian OVCAR-8 CL6005): 4.8
-Log (GI50) ([2]; Ovarian SK-OV-3 CL6011): 3.8
-Log (GI50) ([2]; Prostate DU-145 CL11003): 5.1
-Log (GI50) ([2]; Prostate PC-3(I) CL11001): 4.3
-Log (GI50) ([2]; Renal 786-O CL9018): 4.9
-Log (GI50) ([2]; Renal A498 CL9013): 5.0
-Log (GI50) ([2]; Renal ACHN CL9023): 5.0
-Log (GI50) ([2]; Renal CAKI-1 CL9015): 5.3
-Log (GI50) ([2]; Renal RXF-393 CL9016): 4.2
-Log (GI50) ([2]; Renal SN12C CL9008): 4.5
-Log (GI50) ([2]; Renal TK10 CL9024): 3.6
-Log (GI50) ([2]; Renal UO-31 CL9004): 5.2
